One data set deals with HUVECs. Put plainly: Toxicity to and proliferation of HUVECs. The class given is cell-based, human. The settings on record: DHMEQ 3 μg/ml.
Data set [1] relates to human breast cancer cell line MCF-7 transplanted into SCID mice. Put plainly: MCF-7 subcutaneous tumor model in SCID mice. The note with it: DHMEQ 4 mg/kg i.p. three times per week. The class given is in vivo. On the procedure: Subcutaneous tumor model SCID mice (CLEA Japan) were given DHMEQ (4 mg/kg) three days a week and the volume of the tumors were periodically measured for examination of the suppressive effect of DHMEQ on tumor growth. The body weights of the mice were also measured simultaneously.
MCF-7 (1×10^6 cells) suspended in 100 μl of PBS was inoculated subcutaneously into the back of six-week-old SCID mice. DHMEQ was suspended in 0.5% methylcellulose (Nacalai Tesque) solution at 4 mg/kg in 200 μl. The drug-containing solution or 0.5% methylcellulose solution (200 μl) was intraperitoneally administered three times per week (n=8/group), starting on the next day after inoculation. The major axis and minor axis of the tumors were measured with calipers every seven days. The tumor volume was calculated as follows: (major axis)×(minor axis)^2/2. The body weights were also measured simultaneously.

For data set [2], the system named is human pancreatic cancer cell lines, Panc-1, PK-8, and Colo357. Nature of the data set: In vitro proliferation of human pancreatic cancer cell lines, DHMEQ with irradiation. The class given is cell-based. On the procedure: The in vitro suppressive effect of DHMEQ on proliferation of human pancreatic cancer cell lines when DHMEQ and irradiation are used in combination was investigated. The human pancreatic cancer cell lines, Panc-1, PK-8, and Colo357 were plated 10 cm dishes (5×10^5 cells each). After two days, cells were irradiated with either 2.5 Gy or 10 Gy radiation, followed by administration of 10 μg/ml DHMEQ for 4 hours in the combinatin group. The number of cells was measured after 24 hours. Either the point of the completion of irradiation or the point of the start of the drug administration was assumed to be 0 hours.

The subject of the next data set is KMH2. Put plainly: MTT assay, KMH2 cells, DHMEQ combined with antitumor agents. The class given is cell-based. The settings on record: DHMEQ 10 μg/ml, 48 hours, with camptothecin, daunomycin or etoposide. As for the experimental part:
(§1) DHM2EQ was added to the ATL cell lines (MT-1 and TL-Om1) and a control cell line (K562) at a final concentration of 10 μg/ml and the cells were incubated for 12, 24, 48, and 72 hours. The proliferation-inhibitory effect was examined by the MTT assay. Cells to which the solvent DMSO had been added in equal volume were used as controls. Relative MTT values were obtained in the same manner as the aforementioned (1).
The effects of antitumor agents and the enhancing effect thereon were examined by the MTT assay method as described in Example 5(2).
In this example, the cells used were KMH2. The horizontal axes in FIG. 31 indicate the concentrations of each antitumor agent the DHMEQ concentration. The concentrations of each anticancer agent were set at three levels. The examination was performed on DHMEQ alone, the antitumor agent alone, or both in combination, at each level. DHMEQ was used at a concentration of 10 μg/ml and the treatment time was 48 hours. The vertical axis indicates the relative values of the MTT values of treated cells versus untreated cells, i.e., (treated/untreated)×100%.

In another data set the target is NF-κB (Homo sapiens, UniProt P19838+Q04206). Put plainly: p6kb-Luc luciferase reporter assay of NF-κB activity in JCA-1 cells. The class given is cell-based. Details: endogenous in cells. The note with it: 2.5, 5, 10, 20, 40 μg/ml DHMEQ, 8 hours. As for the experimental part: To measure the inhibitory effect of DHMEQ on activity of NF-κB, the activity of NF-κB on DHMEQ at various concentrations was measured using transcriptional activity of NF-κB as an index. As the reporter, the vector construct (p6kb-Luc), containing a luciferase gene as the reporter in the downstream of the promoter containing six tandem copies of the NF-κB binding sequence, was used. This reporter plasmid was transfected into JCA-1 cells using GenePOETER™ (Gene Therapy Systems). Fourteen hours after the transfection, 2.5, 5, 10, 20, and 40 μg/ml DHMEQ was added to the cell medium, followed by further incubation for 8 hours. Subsequently, cells were recovered and luciferase activity was measured. […] Each luciferase activity was measured and the absolute value was presented by standardization. All experiments were conducted independently three times, producing averages and standard deviations.

The test system of data set [3] is ATL cell lines (MT-1 and TL-Om1). Put plainly: MTT assay, proliferation of ATL cell lines. The class given is cell-based, human. As for the experimental part: Cells from the ATL cell lines (MT-1 and TL-Om1) and a control cell line (K562) were plated in 96-well plates at 1×10^5 cells/well and DHM2EQ was added at the desired final concentrations (2, 5, and 10 μg/ml). Cells to which the solvent DMSO had been added in equal volume (0 μg/ml) were used as […] incubation for 72 hours, cell viability was judged by the MTT assay. Relative MTT values were obtained as the ratio of the MMT values of DHM2EQ-treated cells to those of DHM2EQ-untreated cells, i.e., (MTT values of DHM2EQ-treated cells/MTT values of DHM2EQ-untreated cells)×100(%).
as §1

The structures appear in SMILES notation.

NF-κB, sequence (Q04206 whole entry): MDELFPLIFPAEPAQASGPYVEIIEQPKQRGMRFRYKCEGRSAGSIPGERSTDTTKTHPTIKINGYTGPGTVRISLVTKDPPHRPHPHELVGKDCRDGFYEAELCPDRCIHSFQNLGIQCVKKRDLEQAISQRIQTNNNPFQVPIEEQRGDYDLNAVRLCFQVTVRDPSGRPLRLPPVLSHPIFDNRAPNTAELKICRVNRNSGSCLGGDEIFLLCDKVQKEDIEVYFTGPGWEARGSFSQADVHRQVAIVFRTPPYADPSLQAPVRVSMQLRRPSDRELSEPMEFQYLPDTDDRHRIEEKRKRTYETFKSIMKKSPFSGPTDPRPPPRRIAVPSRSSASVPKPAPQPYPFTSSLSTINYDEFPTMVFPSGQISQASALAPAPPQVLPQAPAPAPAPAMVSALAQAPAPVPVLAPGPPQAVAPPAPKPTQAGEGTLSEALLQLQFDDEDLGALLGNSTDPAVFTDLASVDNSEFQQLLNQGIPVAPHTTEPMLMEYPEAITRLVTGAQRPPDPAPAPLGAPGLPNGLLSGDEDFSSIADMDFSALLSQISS
NF-κB, sequence (P19838 1-433 limits assumed): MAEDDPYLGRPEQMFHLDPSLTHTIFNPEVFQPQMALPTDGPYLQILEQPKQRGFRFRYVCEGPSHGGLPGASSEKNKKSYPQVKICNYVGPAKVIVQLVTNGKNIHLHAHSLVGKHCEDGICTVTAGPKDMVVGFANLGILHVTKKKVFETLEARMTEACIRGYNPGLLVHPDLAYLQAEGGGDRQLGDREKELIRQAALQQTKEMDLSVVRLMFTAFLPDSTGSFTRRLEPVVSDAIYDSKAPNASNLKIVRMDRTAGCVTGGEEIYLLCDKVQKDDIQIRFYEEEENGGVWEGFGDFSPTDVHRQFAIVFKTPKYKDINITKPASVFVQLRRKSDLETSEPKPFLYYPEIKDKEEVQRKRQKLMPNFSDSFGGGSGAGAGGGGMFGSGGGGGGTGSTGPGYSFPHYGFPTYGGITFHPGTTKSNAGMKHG

With `O=C(NC1=CC(=O)C2OC2C1O)c1ccccc1O` (stereo not drawn) [DHMEQ, 5,6-epoxy-4-hydroxy-3-salicyloylamino-2-cyclohexenone], in the data set on HUVECs, the “toxicity to HUVECs and suppression of their proliferation” value is on record as “neither exhibited toxicity to HUVECs nor suppressed their proliferation”. The “mortality or weight loss of the mice” value in data set [1] is reported as “No mortality or weight loss”. In addition, the “tumor growth (tumor volume)” value in data set [1] (MCF-7 s.c.) is listed as “significant suppressive effect”. The “suppressive effect on proliferation in combination with irradiation” value in data set [2] (Colo357 and Panc-1, 10 μg/ml 4 hours after irradiation) is “synergistic suppressive effect”. In addition, in data set [2] (Colo357 and Panc-1, combination with irradiation), the “enhancement of irradiation effect (2.5 Gy to 10 Gy or equivalent)” value is listed as “four-fold”. In addition, the “suppressive effect on proliferation, DHMEQ alone” value in data set [2] (PK-8 and Colo357, 10 μg/ml, 4-hour contact, cell number after 24 hours) was “sufficient suppressive effect”. Besides, the “radiation dose of equal effect” value in data set [2] (PK-8 and Colo357, 10 μg/ml, 4 hours) stood at 2.5 Gy. Besides, in data set [2] (Panc-1), the “effectiveness of DHMEQ alone” value is “less effective”. Besides, the “effect on the action of antitumor agents (MTT)” value in the data set on KMH2 is reported as “enhances the effect of any antitumor agent used”. For the same compound, the “NF-κB activity (luciferase) in JCA-1 cells” value on NF-κB is on record as “concentration-dependently inhibits”. The “cell proliferation, time course (MTT)” value in data set [3] (10 μg/ml, 12, 24, 48, 72 hours) is on record as “inhibited in proportion to the DHM2EQ treatment time”. The “cell proliferation, concentration dependence (MTT)” value in data set [3] (2, 5, 10 μg/ml, 72 hours) was “inhibited in proportion to the DHM2EQ concentrations added”.

(Values after patent US20060183794A1, “Drug composition containing nf-kb inhibitor” (priority 2002, published 2006).)
